For orientation: melting point means the temperature of the solid-liquid transition.

As to `C[C@@H](S[C@H]1CC[C@H](/C=C/c2ccc(Cl)cc2)CC1)[C@](O)(Cn1cncn1)c1ccc(F)cc1F`, the melting point was 64 to 66 °C. The same measure for `CCOC(=O)c1sc(-c2ccc(C#N)cc2)nc1C`: 144 °C; for `Cc1cc(O)c(C)c2c1C(C)CC(C)(C)O2` (stereo unspecified): 88 to 89 °C. As to `COC(=O)c1cc(OC)c(Br)cc1Cl`, the melting point lay within 78 to 79 °C.

The compound `NC(=O)N(O)CCNC(=O)c1cccc(Oc2ccc(Cl)cc2)c1` showed a melting point of 146 to 147 °C. In turn, `CC(C)(S)CN1CCN(Cc2ccc(O)cc2)CC1` registered a melting point of 81 °C. As to `O=C(CCc1cccc(C(F)(F)F)c1)NNC(=O)c1ccc2[nH]ncc2c1`, the melting point fell in the range of 227 to 228 °C. The value for `NCCc1c[nH]c(=O)[nH]c1=O` was 214 to 220 °C; that for `CCOC(=O)c1ccc(-c2ccc(OCCCCCCCCCCCCOC(C)=O)cc2)cc1` was 80.1 to 81.5 °C. The value for `CSc1[nH]nc(-c2ccc(Cl)cc2F)c1C` was 88 to 90 °C. The same measure for `CCOC(=O)c1nc(CCl)n(-c2ccccc2C(=O)c2ccccn2)n1`: 129 to 130 °C; for `Cc1cncc(C)c1CO`: 93 to 95 °C; for `CCC(CC)NC(=O)c1ccc(-c2scc(Br)c2CC(=O)OC)cc1`: 97 to 98 °C.

`C1=C(CCc2ccco2)CCN(Cc2c[nH]c3ncccc23)C1` returned a melting point of 105 °C. Compound `CCCCN(C)CCc1ccc(Nc2ncc3c(n2)-c2ccccc2C(c2ccccc2C(F)(F)F)C3)cc1` (stereo unspecified) yielded a melting point of 80 to 82 °C. The value for `CC1CN(c2c(F)cc3c(=O)c(C(=O)O)cn(C4CC4)c3c2Cl)CC1N` (stereo unspecified) was 231 to 234 °C; that for `CN1CCN(C2CCCc3nc4ccccc4c(N)c32)CC1` (stereo unspecified) was 200 to 202 °C.

Regarding `CC(=O)c1c(O)ccc2c(C)cc(=O)oc12`, the melting point is 167 to 169 °C. The value for `CC1(C)C(=O)N(c2ccc([N+](=O)[O-])c(C(F)(F)F)c2)C(=O)N1CC=CCN1C(=O)N(c2ccc([N+](=O)[O-])c(C(F)(F)F)c2)C(=O)C1(C)C` was 191 to 193 °C. As for `Cn1c(Nc2c(Cl)cccc2Cl)nc2ccc3c(c21)C(=O)NC(C)(C)N3`, the melting point fell in the range of 238 to 239 °C. Turning to `CN1C(=O)[C@H](NC(=O)/C=C/c2ccc(Br)cc2)N=C(c2ccccc2)c2ccccc21`, the melting point is 121 to 124 °C. `O=[N+]([O-])c1ccc(C(O)c2ccccn2)cc1` (stereo unspecified) gave a melting point of 114 to 115 °C. The same measure for `CCOC(=O)C1=C(C)NC(SCc2ccc(OC)cc2)=NC1c1cccc([N+](=O)[O-])c1Cl` (stereo unspecified): 155 to 157 °C. Take `COC(=O)c1ccc(Cc2cn(C)c3ccc(C(=O)NCC(C)CC(F)(F)F)cc23)c(OC)c1` (stereo unspecified): the melting point lay in the range of 150 to 151 °C. The same measure for `CC(=O)C1CCC2C3CCC4CC(O)C(N5CCSC(C)(C)C5)CC4(C)C3CCC12C` (stereo unspecified): 184 to 185 °C. The value for `O=c1n(Cc2ccccc2)c2cc(Cl)ccc2n1C1CCNCC1` was 128 °C. The same measure for `Fc1ccc(Cn2c(NC3CCN(CCNc4nccs4)C3)nc3ccccc32)cc1` (stereo unspecified): 127 °C; for `O=C1CNN(Cc2cccc(C(F)(F)F)c2)C(=O)N1`: 152 °C; for `CCNC(=O)ON(C(C)=O)C(=O)NCC`: 84 to 86 °C. The compound `c1ccc(C2CN(CCCc3cccnc3)Cc3c2[nH]c2ccccc32)cc1` (stereo unspecified) displayed a melting point of 204 to 206 °C. Turning to `CCn1c(=O)c2[nH]c(/C=C/c3ccc(F)cc3)nc2n(CC)c1=O`, the melting point is over 270 °C. In turn, `CCN(C(=O)c1ccc2nonc2c1)C1CCCCC1` returned a melting point of 51 to 52 °C.

Take `CCCCCCCCS(=O)(=O)Nc1cc(C(=O)Nc2ccccc2)ccc1OC`: the melting point fell in the range of 154 to 155 °C. The value for `COc1cc(-c2csc(C3CC3)n2)cc2oc(=O)c(C)c(C)c12` was 151 °C; that for `COCc1cc(C)nc2c(OCc3ccccc3)cccc12` was 73.7 to 76.3 °C. Regarding `Cc1ccc(S(=O)(=O)OCC(C)O)cc1` (racemic), the melting point lay within 49.5 to 50 °C. Consider `COCOc1ccc(-n2nc(C(F)(F)F)cc2-c2ccc(S(C)(=O)=O)cc2)cc1`, for which the melting point lay in the range of 96 to 97 °C. `O=C(O)c1ccc(C=C2CCN(C(=O)c3ccc(Cl)cc3)CC2)c(F)c1` returned a melting point of 170 to 173 °C. The value for `C=CCON=C(C(=O)OCC)c1csc(N)n1` was 102 to 104 °C; that for `N#Cc1ccc(OCCN2CCN(c3cc(Cl)nnc3Cl)CC2)cc1` was 175 to 177 °C; that for `CSc1nc(-c2cccnc2)n(-c2ccc(F)cc2)c(=O)c1C#N` was 190 to 193 °C. In turn, `Cn1ncc(-c2nn(-c3cccc(C(F)(F)F)c3)ccc2=O)c1-c1ccccc1` yielded a melting point of 193 to 195 °C.

`Cn1nc(N2c3ccccc3C[C@H]2C(=O)N2CCCC(C)(C)C2)ccc1=O` gave a melting point of 125 to 129 °C. The same measure for `CCCCOc1ccc(S(=O)(=O)C2(C(=O)O)CCN(Cc3ccc(C#N)cc3)CC2)cc1`: 242 °C. On to `Cc1cc(Cl)ccc1NC(=O)c1cccc(S(=O)(=O)N(C)c2ccc(Br)cc2)c1`, for which the melting point was 163 to 164 °C. With `COC(=O)c1cccn1Cc1ccccc1`, the melting point fell in the range of 31 to 32 °C. `O=C1Nc2cccc(-c3cccc4c3oc3ccccc34)c2C12COc1cc3c(cc12)OCO3` (stereo unspecified): the melting point is over 230 °C. The same measure for `Cc1oc(-c2ccco2)nc1COc1ccc(Cn2cc(CCC(=O)O)c(OCc3ccccc3)n2)cc1`: 104 to 105 °C. The same measure for `COC(=O)c1ccc(C(C)C(C)NCC(O)c2ccc(O)c(CO)c2)cc1` (stereo unspecified): 84.5 to 87 °C; for `CC=C(C)C1CCC2C3CC=C4CC(O)CCC4(C)C3CCC12C` (stereo unspecified): 140 to 145 °C.

`O=C(O)Cc1ccccc1OCCC(c1ccccc1)(c1ccccc1)c1ccccc1`: the melting point is 79 to 80 °C. The value for `CCCOc1cc2c(cc1OC)C(c1ccc(OC)c(OC)c1)=NN=C(C)C2CC` (stereo unspecified) was 110 to 112 °C; that for `COCC(=O)C(=NNc1ccc(I)cc1F)C(=O)OC` was 141 to 146 °C; that for `COC(=O)c1cc2c(nc1C(=O)OC)N(C)CC2` was 132 to 133 °C.

`Cc1cc([N+](=O)[O-])cc2c(Cl)c(C#N)cnc12` showed a melting point of 210 to 212 °C. The same measure for `Cc1nc2c(N)nc3ccccc3c2n1CCCCS(C)(=O)=O`: 206 to 209 °C; for `CCOC(=O)c1ccc(/C=C(\C)c2ccc(OC)c(C3(C)CCCCC3)c2)cc1`: 60 to 62 °C; for `CCNC(=O)Nc1ccc(-c2sc3c(c2CN(C)CCOC)c(=O)n(-c2ccc(OCCOC)c(OCCOC)c2)c(=O)n3Cc2c(F)cccc2F)cc1`: 206 to 208 °C. The same measure for `CCNC(=O)[C@@H]1Cc2ccccc2N1`: 92 to 95 °C; for `O=C(CCCCCCNC(=O)c1cc2cccc3c2n1CCC3)NO`: 160 to 161 °C.

In the case of `O=C1c2ccc(Cl)c3c(N4CCCC4)cc(Cl)c(c23)C(=O)N1O`, the melting point fell in the range of 243 to 245 °C. As to `Cc1cccc(NC(=O)OC(C)(C)C)c1CNc1cccn2c(C)c(C)nc12`, the melting point fell in the range of 128 to 131 °C. Turning to `COC(=O)c1ccc(NCC=Cc2ccccc2)cn1`, the melting point fell in the range of 131 to 133 °C. The same measure for `Cc1nccn1-c1cccc(Nc2ccc(-c3ccoc3)cc2N)c1`: 98 to 99 °C. The value for `COC(=O)CCSc1scnc1C(=O)O` was 112 to 116 °C. The same measure for `COc1ccc(OCc2ccccc2)cc1CBr`: 88 to 90 °C; for `Cc1c(-c2ccc(O)cc2)n(Cc2ccc(OCCN3CCCCCC3)cc2)c2ccc(O)cc12`: 168 to 171 °C; for `CCOC(=O)Cc1ccccc1Oc1ccc(C)cc1`: 75 °C. The compound `COc1ccc2[nH]c(C(=O)N3CC(CCl)c4c3cc(N)c3ccccc43)cc2c1` (stereo unspecified) gave a melting point of 250 to 255 °C. The value for `Oc1ccc(CCNc2ncnc3scnc23)cc1` was 161 to 168 °C. The value for `O=C1C=CN=CC1[N+](=O)[O-]` (stereo unspecified) was 282 to 284 °C; that for `CC(C)S(=O)(=O)c1cc(O)c(N)c(C#N)c1` was 166 to 167 °C. In turn, `Oc1cncc2sccc12` had a melting point of 206 °C. The value for `COc1cc(CC(C#N)=CNc2ccccc2)cc(OC)c1N(C)C(C)=O` was 202 to 204 °C; that for `COc1nn(-c2cccc(N(C)C(C)=O)c2)c(=O)n(Cc2ccc(Cl)cc2)c1=O` was 157 °C. The same measure for `NCC(O)C1=CC2(CC2)c2ccccc21` (stereo unspecified): 133 to 134 °C; for `CN(C)S(=O)(=O)c1ccc2c(c1)CNc1ccccc1O2`: 99 to 102 °C.

Take `Cn1cnc(S(=O)(=O)N2CCS(=O)(=O)CC2)c1`: the melting point is 179 to 180 °C. The compound `CCCc1ccc(CCCC(P(=O)(O)O)P(=O)(O)O)cc1` had a melting point of 200 to 202 °C. The same measure for `O=C1NC(=O)C(c2cccc(C(F)(F)F)c2)O1` (stereo unspecified): 93 to 96 °C; for `CC(=O)n1c(-c2ccc(C#N)cc2)cc2ccccc21`: 158 to 160 °C. The value for `CC(C)N(C)c1ncc(C2CC2(C)C(N)=O)cc1Cl` (stereo unspecified) was 86 to 87 °C; that for `COCCc1nc2c(N)nc3ccccc3c2n1CCCNC(=O)Nc1ccccc1` was 40 °C. The same measure for `CCC(Oc1ccc(-n2nnc3cc(C(F)(F)F)ccc32)cc1)C(=O)O` (stereo unspecified): 122 to 125 °C. `O=C1c2cc(-c3ccc(C(F)(F)F)cc3)ccc2CC1Br` (stereo unspecified) registered a melting point of 105 °C. The value for `CCCc1c(OCCCC/C=C/c2ccc(C(=O)c3cccc(C(=O)O)c3)cc2CCC(=O)O)ccc2c1OCCC2=O` was 105 to 109 °C. In the case of `CCC12CCC(=O)C3Oc4c(O)ccc5c4C31CCN(CC1CC1)C2C5` (stereo unspecified), the melting point lay within 157 to 158 °C. The value for `O=C(O)c1cccc(-c2cccc3c2OC(Cc2cccc(C(F)(F)F)c2)C3)c1` (stereo unspecified) was 156 to 157 °C; that for `CC(C)Nc1nc2cc(Cl)c(Cl)cc2n1C1OC(CO)C(O)C1O` (stereo unspecified) was 197 to 199 °C.

The compound `O=C1N(CC2CCCO2)c2cc(F)ccc2C12COc1cc3c(cc12)CCO3` (stereo unspecified) showed a melting point of 137 to 139 °C. The same measure for `OC1CCN(c2ncc(-c3cccc(Cl)c3)cn2)CC1`: 160 to 162 °C.
